Source: ChEMBL document CHEMBL4706474, “Tetrahydro-2-naphthyl and 2-Indanyl Triazolopyrimidines Targeting Plasmodium falciparum Dihydroorotate Dehydrogenase Display Potent and Selective Antimalarial Activity” (J Med Chem, 2016)
In brackets after ≈: the same amount, converted by molar mass. Activity calls are given as the source filed them. No cut-off for these calls is given here.

Experiments:
Cytochrome P450 2C19 = Cytochrome P450 2C19 (Homo sapiens, UniProt P33261); assay: Inhibition of CYP2C19 in human liver microsomes using isoform-specific probe substrates in presence of NADPH-generating system by LC-MS analysis; assay type: ADME; conditions: read-out: IC50
Sequence of Cytochrome P450 2C19 (P33261 whole entry, canonical isoform): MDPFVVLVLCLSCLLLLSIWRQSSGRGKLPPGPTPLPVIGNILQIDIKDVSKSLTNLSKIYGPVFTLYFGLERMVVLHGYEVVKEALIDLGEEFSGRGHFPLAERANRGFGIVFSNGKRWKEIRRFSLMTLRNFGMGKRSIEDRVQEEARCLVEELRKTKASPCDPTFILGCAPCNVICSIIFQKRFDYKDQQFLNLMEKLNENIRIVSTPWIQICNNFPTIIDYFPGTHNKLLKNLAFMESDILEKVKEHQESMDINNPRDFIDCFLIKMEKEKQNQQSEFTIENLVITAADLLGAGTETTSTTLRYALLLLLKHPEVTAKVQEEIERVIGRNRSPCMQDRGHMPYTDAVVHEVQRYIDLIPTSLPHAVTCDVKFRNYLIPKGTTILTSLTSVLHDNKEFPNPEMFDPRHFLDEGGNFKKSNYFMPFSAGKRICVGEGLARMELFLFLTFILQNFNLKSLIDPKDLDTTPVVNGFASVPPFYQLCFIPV

[1] = molecular target: Dihydroorotate dehydrogenase (quinone), mitochondrial (Rattus norvegicus, UniProt Q63707); assay: Inhibition of N-terminal His6-tagged rat DHODH expressed in Escherichia coli BL21 expressed in Escherichia coli BL21 using L-DHO as substrate and CoQ as co-substrate by DCIP dye based spectrophotometric assay
Sequence of Dihydroorotate dehydrogenase (quinone), mitochondrial (Q63707 whole entry): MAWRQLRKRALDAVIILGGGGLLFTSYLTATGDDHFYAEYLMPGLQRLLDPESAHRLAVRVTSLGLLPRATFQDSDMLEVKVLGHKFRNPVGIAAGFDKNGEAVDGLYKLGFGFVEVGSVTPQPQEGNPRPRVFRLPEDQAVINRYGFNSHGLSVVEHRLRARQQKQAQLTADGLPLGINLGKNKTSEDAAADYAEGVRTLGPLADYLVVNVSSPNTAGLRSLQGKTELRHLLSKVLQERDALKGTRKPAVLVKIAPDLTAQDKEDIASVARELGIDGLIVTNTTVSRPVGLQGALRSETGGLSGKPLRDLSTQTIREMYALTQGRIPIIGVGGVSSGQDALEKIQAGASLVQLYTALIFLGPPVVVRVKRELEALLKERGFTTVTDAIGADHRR

[2] = Solubility of compound in FeSSIF at pH 5 measured after 5 to 6 hrs by HPLC-UV based analysis; assay type: physicochemical; conditions: simulated gi fluid, time 5-6 hrs
Cytochrome P450 2C8 = molecular target: T1, Cytochrome P450 2C8 (Homo sapiens, UniProt P10632); assay: Inhibition of CYP2C8 in human liver microsomes using isoform-specific probe substrates in presence of NADPH-generating system by LC-MS analysis; assay type: ADME
T1 sequence (P10632 whole entry): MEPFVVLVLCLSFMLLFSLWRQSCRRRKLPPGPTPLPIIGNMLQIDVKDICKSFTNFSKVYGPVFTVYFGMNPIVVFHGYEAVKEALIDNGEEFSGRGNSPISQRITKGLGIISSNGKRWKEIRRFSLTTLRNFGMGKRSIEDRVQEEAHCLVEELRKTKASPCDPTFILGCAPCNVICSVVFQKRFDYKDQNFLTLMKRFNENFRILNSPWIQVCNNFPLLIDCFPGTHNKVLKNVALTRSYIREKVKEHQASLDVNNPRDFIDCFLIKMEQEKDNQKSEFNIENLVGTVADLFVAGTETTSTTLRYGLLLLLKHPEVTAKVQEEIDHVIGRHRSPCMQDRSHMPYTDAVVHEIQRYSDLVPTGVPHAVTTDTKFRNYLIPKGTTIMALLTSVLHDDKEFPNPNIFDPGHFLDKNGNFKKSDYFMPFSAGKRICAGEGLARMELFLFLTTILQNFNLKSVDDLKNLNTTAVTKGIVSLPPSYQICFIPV

[3] = Tmax in Swiss mouse at 20 mg/kg, po administered as single dose via gavage measured over 24 hrs by LC-MS analysis; assay type: ADME, organism-based; conditions: in vivo
[4] = Cmax in Swiss mouse at 20 mg/kg, po administered as single dose via gavage measured over 24 hrs by LC-MS analysis; assay type: ADME, organism-based; set-up: route oral, dose 20 mg/kg, time >24; conditions: in vivo
[5] = Unbound Cmax in Swiss mouse at 20 mg/kg, po administered as single dose via gavage measured over 24 hrs by LC-MS analysis; assay type: ADME, organism-based; conditions: in vivo
[6] = Apparent half-life in rat Sprague-Dawley at […], iv administered as infusion for 10 mins by LC-MS analysis; assay type: ADME, organism-based; conditions: in vivo, dose 1.6 mg/kg
[7] = AUC (0 to infinity) in Sprague-Dawley rat at […], iv administered as infusion for 10 mins by LC-MS analysis; assay type: ADME, organism-based; set-up: route intravenous, time 10 min, dose 1.6 mg/kg; conditions: in vivo
[8] = Unbound clearance in Sprague-Dawley rat at […], iv administered as infusion for 10 mins by LC-MS analysis; assay type: ADME, organism-based; conditions: in vivo, dose 1.6 mg/kg
[9] = Volume of distribution at steady state in Sprague-Dawley rat at […], iv administered as infusion for 10 mins by LC-MS analysis; assay type: ADME, organism-based; conditions: in vivo, dose 1.6 mg/kg
[10] = Unbound volume of distribution at steady state in Sprague-Dawley rat at […], iv administered as infusion for 10 mins by LC-MS analysis; assay type: ADME, organism-based; conditions: in vivo, dose 1.6 mg/kg
[11] = Cmax in Sprague-Dawley rat at 17.5 mg/kg, po measured over 24 hrs by LC-MS analysis; assay type: ADME, organism-based; set-up: route oral, dose 17.5 mg/kg, time >24; conditions: in vivo
[12] = Unbound Cmax in Sprague-Dawley rat at 17.5 mg/kg, po measured over 24 hrs by LC-MS analysis; assay type: ADME, organism-based; conditions: in vivo
[13] = AUC (0 to infinity) in Sprague-Dawley rat at 17.5 mg/kg, po measured over 24 hrs by LC-MS analysis; assay type: ADME, organism-based; set-up: route oral, dose 17.5 mg/kg, time >24; conditions: in vivo
[14] = Unbound AUC (0 to infinity) in Sprague-Dawley rat at 17.5 mg/kg, po measured over 24 hrs by LC-MS analysis; assay type: ADME, organism-based; conditions: in vivo
[15] = Oral bioavailability in Sprague-Dawley rat at 17.5 mg/kg measured over 24 hrs by LC-MS analysis; assay type: ADME, organism-based; conditions: in vivo
Plasmodium falciparum [16] = assay: Antiplasmodial activity against Plasmodium falciparum 3D7 infected in NSG mouse assessed as blood AUC level require to show 90% reduction in parasitemia administered orally on day 3 post-infection QD for 4 days and measured after 24 hrs post dose by LC-MS/MS analysis; assay type: functional, organism-based; conditions: time 4.0 day
[17] = Inhibition of yeast DHODH expressed in Plasmodium falciparum; set-up: species or system Saccharomyces cerevisiae
Plasmodium falciparum [18] = assay: Antimalarial activity against chloroquine, quinine, mefloquine, pyrimethamine, cycloguanil and sulfadoxine resistant Plasmodium falciparum Dd2; assay type: functional, organism-based
Plasmodium falciparum [19] = assay: Antimalarial activity against atovaquone, chloroquine, cycloguanil and pyrimethamine resistant Plasmodium falciparum TM90C2B; assay type: functional, organism-based
[20] = Protein binding in Swiss mouse plasma at 20 mg/kg, po administered as single dose via gavage measured over 24 hrs by LC-MS analysis; assay type: ADME, organism-based; conditions: read-out: PPB (converted)
[21] = molecular target: Voltage-gated inwardly rectifying potassium channel KCNH2 (Homo sapiens, UniProt Q12809)
Sequence of Voltage-gated inwardly rectifying potassium channel KCNH2 (Q12809 whole entry): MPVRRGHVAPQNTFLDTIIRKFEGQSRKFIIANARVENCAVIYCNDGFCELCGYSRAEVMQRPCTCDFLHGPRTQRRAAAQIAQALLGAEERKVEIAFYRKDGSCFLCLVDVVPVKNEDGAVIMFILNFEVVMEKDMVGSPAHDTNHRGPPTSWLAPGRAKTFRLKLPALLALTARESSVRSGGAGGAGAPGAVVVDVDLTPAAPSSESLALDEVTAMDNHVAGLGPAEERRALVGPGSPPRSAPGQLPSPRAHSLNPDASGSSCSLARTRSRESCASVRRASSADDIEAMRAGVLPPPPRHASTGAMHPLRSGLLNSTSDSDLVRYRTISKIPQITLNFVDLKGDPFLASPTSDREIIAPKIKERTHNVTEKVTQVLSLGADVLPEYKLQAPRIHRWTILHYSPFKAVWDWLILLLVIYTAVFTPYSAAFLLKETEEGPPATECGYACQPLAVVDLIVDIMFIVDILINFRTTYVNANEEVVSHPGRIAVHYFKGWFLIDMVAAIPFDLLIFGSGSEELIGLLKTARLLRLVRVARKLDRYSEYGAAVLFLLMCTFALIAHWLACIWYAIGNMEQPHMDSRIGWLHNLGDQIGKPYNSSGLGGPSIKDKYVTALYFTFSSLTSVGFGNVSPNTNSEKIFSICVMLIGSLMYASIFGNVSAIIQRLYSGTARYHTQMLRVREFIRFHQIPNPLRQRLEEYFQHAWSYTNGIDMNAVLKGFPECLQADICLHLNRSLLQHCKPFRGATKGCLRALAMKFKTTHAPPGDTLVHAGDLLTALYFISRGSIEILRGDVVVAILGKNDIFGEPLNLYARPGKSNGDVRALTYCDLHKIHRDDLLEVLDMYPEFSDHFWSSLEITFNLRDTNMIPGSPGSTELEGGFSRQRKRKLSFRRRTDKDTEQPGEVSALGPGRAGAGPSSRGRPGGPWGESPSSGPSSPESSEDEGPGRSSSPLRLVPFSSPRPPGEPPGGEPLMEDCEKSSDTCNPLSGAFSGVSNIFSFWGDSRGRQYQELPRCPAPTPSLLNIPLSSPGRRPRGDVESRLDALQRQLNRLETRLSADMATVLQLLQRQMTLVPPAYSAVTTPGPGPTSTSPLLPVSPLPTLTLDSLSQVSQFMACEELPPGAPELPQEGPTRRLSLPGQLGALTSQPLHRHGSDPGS
Description: Inhibition of human ERG by patch clamp electrophysiology assay

[22] = Cmax in Sprague-Dawley rat at 21.3 mg/kg, po measured over 24 hrs by LC-MS analysis; assay type: ADME, organism-based; set-up: route oral, dose 21.3 mg/kg, time >24; conditions: in vivo
[23] = Apparent half-life in Sprague-Dawley rat at 1.8 mg/kg, iv administered as infusion for 10 mins by LC-MS analysis; assay type: ADME, organism-based; conditions: in vivo, read-out: t1/2(app) (converted)
[24] = AUC (0 to infinity) in Sprague-Dawley rat at 1.8 mg/kg, iv administered as infusion for 10 mins by LC-MS analysis; assay type: ADME, organism-based; set-up: route intravenous, time 10 min, dose 1.8 mg/kg; conditions: in vivo
[25] = Unbound clearance in Sprague-Dawley rat at 1.8 mg/kg, iv administered as infusion for 10 mins by LC-MS analysis; assay type: ADME, organism-based; conditions: in vivo
[26] = Volume of distribution at steady state in Sprague-Dawley rat at 1.8 mg/kg, iv administered as infusion for 10 mins by LC-MS analysis; assay type: ADME, organism-based; conditions: in vivo
[27] = Unbound volume of distribution at steady state Sprague-Dawley in rat at 1.8 mg/kg, iv administered as infusion for 10 mins by LC-MS analysis; assay type: ADME, organism-based; conditions: in vivo
[28] = Tmax in Sprague-Dawley rat at 21.3 mg/kg, po measured over 24 hrs by LC-MS analysis; assay type: ADME, organism-based; conditions: in vivo
[29] = Unbound Cmax in Sprague-Dawley rat at 21.3 mg/kg, po measured over 24 hrs by LC-MS analysis; assay type: ADME, organism-based; conditions: in vivo
[30] = AUC (0 to infinity) in Sprague-Dawley rat at 21.3 mg/kg, po measured over 24 hrs by LC-MS analysis; assay type: ADME, organism-based; set-up: route oral, dose 21.3 mg/kg, time >24; conditions: in vivo
[31] = Unbound AUC (0 to infinity) in Sprague-Dawley rat at 21.3 mg/kg, po measured over 24 hrs by LC-MS analysis; assay type: ADME, organism-based; conditions: in vivo
[32] = Solubility of compound in FeSSIF at pH 5.8 measured after 5 to 6 hrs by HPLC-UV based analysis; assay type: physicochemical; conditions: simulated gi fluid, time 5-6 hrs
[33] = Unbound AUC (0 to infinity) in Sprague-Dawley rat at 1.8 mg/kg, iv by LC-MS analysis; assay type: ADME, organism-based; conditions: in vivo
[34] = Protein binding in Sprague-Dawley rat plasma at 1.8 mg/kg, iv administered as infusion for 10 mins by LC-MS analysis; assay type: ADME, organism-based; conditions: read-out: PPB (converted)

Cc1cc(N[C@H]2CCc3ccc(Cl)cc3C2)n2nc(C(C)(F)F)nc2n1
IC50 (Cytochrome P450 2C19): > 20 µM | IC50 [1]: > 100 µM | solubility [2]: 36 µg/mL (≈ 95.3 µM) | IC50 (Cytochrome P450 2C8): > 20 µM | Tmax [3]: 1 h | Cmax [4]: 5 µM | fCmax [5]: 0.13 µM | t1/2(app) [6]: 5.9 h | AUC [7]: 3.5 µM·h | CL free [8]: 589 mL/min/kg | Vdss [9]: 6.7 L/kg | fVdss [10]: 186 L/kg | Cmax [11]: 3.3 µM | fCmax [12]: 0.12 µM | AUC [13]: 24.6 µM·h | fAUC [14]: 0.89 µM·h | bioavailability [15]: 67% | AUCED90 (Plasmodium falciparum [16]): 10.3 µM.hr/day | EC50 [17]: 8.6 µM | Activity (Plasmodium falciparum [18]): Active | Activity (Plasmodium falciparum [19]): Active | fraction unbound at 24 h [20]: 0.026 | IC50 [21]: 1.5 µM

Cc1cc(NC2Cc3cc(F)c(F)cc3C2)n2nc(C(C)(F)F)nc2n1
IC50 (Cytochrome P450 2C19): > 20 µM | Cmax [22]: 12.5 µM | IC50 [1]: > 100 µM | fCmax [5]: 1.4 µM | half-life [23]: 11.2 h | AUC(0-inf) [24]: 27.1 µM·h | CL free [25]: 52 mL/min/kg | Vdss [26]: 2.7 L/kg | fVdss [27]: 47 L/kg | Tmax [28]: 4 h | fCmax [29]: 0.72 µM | AUC(0-inf) [30]: 202 µM·h | fAUC [31]: 11.7 µM·h | AUCED90 (Plasmodium falciparum [16]): 137 µM.hr/day | solubility [32]: 65 µg/mL (≈ 178 µM) | fAUC [33]: 1.57 µM·h | Activity (Plasmodium falciparum [18]): Active | Activity (Plasmodium falciparum [19]): Active | fraction unbound at 24 h [20]: 0.047 | fraction unbound at 10 min [34]: 0.058
